The source of these data is doi:10.1101/2021.10.07.463234v2 (biorxiv, 2021).

Structures can show the parent of a compound that is named as a salt.

One test has as its target SARS-CoV-2 Mac1 (Severe acute respiratory syndrome coronavirus 2, UniProt P0DTD1). The experiment in a line: biochemical. To be noted: 100 µM; inhibitor.
The term %inhibition denotes how much of the control response was suppressed. A low value points to a weak effect. Turning to `O=C(O)c1ccccc1O` [Sodium salicylate], the “%inhibition” value was 0%.

As for `N=C(N)NCCN1CCCCCCC1` [Guanethidine Monosulfate], the “%inhibition” value is 5.593%. Same read-out and setting: with `CN(CCOc1ccc(CC2SC(=O)NC2=O)cc1)c1ccccn1` (centres unmarked) [Rosiglitazone maleate] the figure was 9.239%; with `N[C@@H](Cc1cc(I)c(Oc2cc(I)c(O)c(I)c2)c(I)c1)C(=O)O` [L-Thyroxine], 10.74%. In the case of `COc1ccnc(C[S+]([O-])c2nc3cc(OC(F)F)ccc3[nH]2)c1OC` (centres unmarked) [Pantoprazole sodium], the “%inhibition” value was determined as 0%. As to `CN(C)CC/C=C1/c2ccccc2Sc2ccc(Cl)cc21` [Chlorprothixene], the “%inhibition” value was found to be 13.67%.

For `CC1(C)S[C@@H]2[C@H](NC(=O)[C@H](N)c3ccc(O)cc3)C(=O)N2[C@H]1C(=O)O` [Amoxicillin Sodium], the “%inhibition” value is reported as 14.1%. Regarding `CN(CCOc1ccc(CC2SC(=O)NC2=O)cc1)c1ccccn1` (centres unmarked) [Rosiglitazone HCl], the “%inhibition” value is given as 0%. Regarding `COc1cc(Nc2ncc(F)c(Nc3ccc4c(n3)N(COP(=O)(O)O)C(=O)C(C)(C)O4)n2)cc(OC)c1OC` [Fostamatinib (R788)], the “%inhibition” value came to 0%. Regarding `NC[C@H]1O[C@H](O[C@H]2[C@H](O)[C@@H](O[C@H]3O[C@H](CO)[C@@H](O)[C@H](N)[C@H]3O)[C@H](N)C[C@@H]2N)[C@H](N)C[C@@H]1O` [Tobramycin sulfate], the “%inhibition” value is 7.872%.

The same test, now with this note: read-out: %inhibition.
Usually inhibition stands for the relative decrease from the control value, in per cent. `CCCCS(=O)(=O)N[C@@H](Cc1ccc(OCCCCC2CCNCC2)cc1)C(=O)O` [Tirofiban Hydrochloride]: the inhibition at 100 µM stood at 9.42%. Still for that read-out and setting: with `CCC1(c2ccccc2)C(=O)NCNC1=O` [Primidone] the figure was 7.21%; with `O=C(Nc1c(Cl)cncc1Cl)c1ccc(OC(F)F)c(OCC2CC2)c1` [Roflumilast], 5.88%; with `CCCNC(=O)NS(=O)(=O)c1ccc(Cl)cc1` [Chlorpropamide], 0%. On the same count and under the same terms, with `CSc1nc2cc(Cl)c(Oc3cccc(Cl)c3Cl)cc2[nH]1` [Triclabendazole] the figure was 20.5%. Same read-out and setting: with `CC(C)NCC(O)c1ccccc1Cl` (centres unmarked) [Clorprenaline HCl] the figure was 7.59%. Turning to `CO[C@H]1C[C@@H]2CC[C@@H](C)[C@@](O)(O2)C(=O)C(=O)N2CCCC[C@H]2C(=O)O[C@H]([C@H](C)C[C@@H]2CC[C@@H](OCCO)[C@H](OC)C2)CC(=O)[C@H](C)/C=C(\C)[C@@H](O)[C@@H](OC)C(=O)[C@H](C)C[C@H](C)/C=C/C=C/C=C/1C` [Everolimus (RAD001)], the inhibition at 100 µM was 11.2%. Take `C#CCN[C@@H]1CCc2ccccc21` [Rasagiline Mesylate]: the inhibition at 100 µM came to 0%. On to `C[C@H]1[C@H](NC(=O)/C(=N\OC(C)(C)C(=O)O)c2csc(N)n2)C(=O)N1S(=O)(=O)O` [Aztreonam], for which the inhibition at 100 µM came to 11.7%. The same measure, in the same setting: with `Oc1c(I)cc(I)c2cccnc12` [Diiodohydroxyquinoline] the figure was 6.28%; with `OCc1ccccc1` [Benzyl alcohol], 0%; with `CCC(=O)O[C@]1(C(=O)SCF)[C@H](C)C[C@H]2[C@@H]3C[C@H](F)C4=CC(=O)C=C[C@]4(C)[C@@]3(F)[C@@H](O)C[C@@]21C` [Fluticasone propionate], 9.66%.

`Nc1nc(/C(=C/CC(=O)O)C(=O)N[C@@H]2C(=O)N3C(C(=O)O)=CCS[C@H]23)cs1` [Ceftibuten dihydrate]: the inhibition at 100 µM was 10.7%. The same measure, in the same setting: with `CC[C@@H]1C(=O)N(C)c2cnc(Nc3ccc(C(=O)N[C@H]4CC[C@H](N5CCN(CC6CC6)CC5)CC4)cc3OC)nc2N1C(C)C` [Volasertib (BI 6727)] the figure was 0%. On the same count and under the same terms, with `CCCCCC(=O)O[C@]1(C(C)=O)CC[C@H]2[C@@H]3CCC4=CC(=O)CC[C@]4(C)[C@H]3CC[C@@]21C` [Hydroxyprogesterone caproate] the figure was 8.48%.

As for `CC12CC3CC(C)(C1)CC(N)(C3)C2` [Memantine HCl], the inhibition at 100 µM turned out to be 0%. Same read-out and setting: with `COC(=O)C1=C(C#N)NC(C)=C(C(=O)OC(C)C)C1c1cccc([N+](=O)[O-])c1` (centres unmarked) [Nilvadipine] the figure was 0%. Regarding `C[N+](C)(C)CC(=O)O` [Betaine], the inhibition at 100 µM came out at 0%.

For the compound `CC(=O)NC[C@H]1CN(c2ccc(N3CCOCC3)c(F)c2)C(=O)O1` [Linezolid], the inhibition at 100 µM worked out at 0%.

As for `OCCOCCN1CCN(C(c2ccccc2)c2ccc(Cl)cc2)CC1` (centres unmarked) [Hydroxyzine 2HCl], the inhibition at 100 µM is 11.4%.

Turning to `Cc1ccccc1OCC(O)CO` (centres unmarked) [Mephenesin], the inhibition at 100 µM was 7.81%. With `COc1cccc2c1C(=O)c1c(O)c3c(c(O)c1C2=O)CC(O)(C(=O)CO)CC3OC1CC(N)C(O)C(C)O1` (centres unmarked) [Doxorubicin (Adriamycin) HCl], the inhibition at 100 µM was 18.3%. Take `CCOc1ccc(Cc2cc([C@]34OC[C@](CO)(O3)[C@@H](O)[C@H](O)[C@H]4O)ccc2Cl)cc1` [Ertugliflozin]: the inhibition at 100 µM was 26.2%. For `C[C@@H](O)[C@H]1C(=O)N2C(C(=O)OCOC(=O)C(C)(C)C)=C(SC3CN(C4=NCCS4)C3)[C@H](C)[C@H]12` [Tebipenem Pivoxil], the inhibition at 100 µM amounted to 1.32%.

Turning to `COc1ccc(-n2nc(C(N)=O)c3c2C(=O)N(c2ccc(N4CCCCC4=O)cc2)CC3)cc1` [Apixaban], the inhibition at 100 µM was 0%. The same measure, in the same setting: with `O=C(O[C@H]1C[N+]2(CCCOc3ccccc3)CCC1CC2)C(O)(c1cccs1)c1cccs1` [Aclidinium Bromide] the figure was 0%; with `Cc1cnc(C(=O)N[C@H]2CCCCC/C=C\[C@@H]3C[C@@]3(C(=O)NS(=O)(=O)C3CC3)NC(=O)[C@@H]3C[C@@H](Oc4nc5ccccc5c5ccccc45)CN3C2=O)cn1` [Paritaprevir (ABT-450)], 0%. In the case of `CCOC(=O)c1ccc(N)cc1` [Benzocaine hydrochloride], the inhibition at 100 µM was 0%.

With `COc1ccccc1O` [Guaiacol], the inhibition at 100 µM was determined as 0%. For `Nc1nc(Cl)nc2c1ncn2[C@H]1C[C@H](O)[C@@H](CO)O1` [Cladribine], the inhibition at 100 µM was found to be 1.17%. `Oc1ccc(OCc2ccccc2)cc1` [Monobenzone]: the inhibition at 100 µM is 0%. With `NCCCC[C@H](N)C(=O)O` [L-Lysine hydrochloride], the inhibition at 100 µM turned out to be 9.1%. On to `COC(=O)CCc1ccc(OCC(O)CNC(C)C)cc1` (centres unmarked) [Esmolol HCl], for which the inhibition at 100 µM was 12%. Still for that read-out and setting: with `Nc1nc(NC2CC2)c2ncn([C@H]3C=C[C@@H](CO)C3)c2n1` [Abacavir sulfate] the figure was 0%; with `CO[C@H]1O[C@@H]2O[C@@]3(C)CC[C@H]4[C@H](C)CC[C@@H]([C@H]1C)[C@@]24OO3` [Artemether], 0%.

Take `O=c1[nH]c2ccccc2n1CCN1CCN(c2cccc(C(F)(F)F)c2)CC1` [Flibanserin]: the inhibition at 100 µM was 0%.

In the case of `c1cc(CN2CCCNCCNCCCNCC2)ccc1CN1CCCNCCNCCCNCC1` [Plerixafor (AMD3100)], the inhibition at 100 µM was found to be 8.18%.

For `O=c1[nH]cnc2c1ncn2[C@@H]1O[C@H](CO)[C@@H](O)[C@H]1O` [Inosine], the inhibition at 100 µM was found to be 0%. Regarding `C[C@]12CC[C@@H]3c4ccc(O)cc4CC[C@H]3[C@@H]1CCC2=O` [Estrone], the inhibition at 100 µM stood at 0%. Take `NC[C@H]1O[C@H](O[C@H]2[C@H](O)[C@@H](O[C@H]3O[C@H](CO)[C@@H](O)[C@H](N)[C@H]3O)[C@H](N)C[C@@H]2N)[C@H](O)[C@@H](O)[C@@H]1O` [Kanamycin sulfate]: the inhibition at 100 µM was 4.88%. With `CO[C@H]1/C=C/O[C@@]2(C)Oc3c(C)c(O)c4c(c3C2=O)C2=NC3(CCN(CC(C)C)CC3)NC2=C(NC(=O)/C(C)=C\C=C\[C@H](C)[C@H](O)[C@@H](C)[C@@H](O)[C@@H](C)[C@H](OC(C)=O)[C@@H]1C)C4=O` [Rifabutin], the inhibition at 100 µM stood at 34.6%. With `Cc1ccc(NC(=O)c2ccc(CN3CC[C@H](N(C)C)C3)c(C(F)(F)F)c2)cc1Nc1nccc(-c2cncnc2)n1` [Bafetinib (INNO-406)], the inhibition at 100 µM was 0%. Same read-out and setting: with `CCC(=O)NC[C@@H]1C[C@H]1c1cccc2c1CCO2` [Tasimelteon] the figure was 0%; with `O=C(c1ccc(F)c(F)c1Nc1ccc(I)cc1F)N1CC(O)([C@@H]2CCCCN2)C1` [Cobimetinib (GDC-0973, RG7420)], 5.28%; with `OC[C@H]1OC(O)[C@H](O)[C@@H](O)[C@@H]1O` (some centres unmarked) [Dextrose], 0%. Consider `O=C(O)[C@H](O)[C@@H](O)[C@H](O)[C@H](O)CO` [Calcium gluconate], for which the inhibition at 100 µM stood at 0%. Still for that read-out and setting: with `O=C1CCCC(=O)C1C(=O)c1ccc(C(F)(F)F)cc1[N+](=O)[O-]` [Nitisinone] the figure was 2.19%; with `O=C(O)c1cc(/N=N/c2ccc(O)c(C(=O)O)c2)ccc1O` [Olsalazine Sodium], 11.8%. `COc1ccc2c(c1)c(CC(=O)OCC(=O)O)c(C)n2C(=O)c1ccc(Cl)cc1` [Acemetacin]: the inhibition at 100 µM turned out to be 8.64%. On the same count and under the same terms, with `CC(C)C(Br)C(=O)NC(N)=O` (centres unmarked) [Bromisoval] the figure was 0%; with `Cc1ccc(Cl)c(Nc2ccccc2C(=O)O)c1Cl` [Meclofenamate Sodium], 5.23%; with `O=S(=O)(O)c1cc(O)ccc1O` [Ethamsylate], 0%. The same measure, in the same setting: with `CC(C)(C)c1cc(NC(=O)Nc2ccc(-c3cn4c(n3)sc3cc(OCCN5CCOCC5)ccc34)cc2)no1` [Quizartinib (AC220)] the figure was 0%.

Turning to `CC(=O)SCC(Cc1ccccc1)C(=O)NCC(=O)OCc1ccccc1` (centres unmarked) [Racecadotril], the inhibition at 100 µM was determined as 0%.

`O=C1CCc2cc(OCCCCc3nnnn3C3CCCCC3)ccc2N1` [Cilostazol]: the inhibition at 100 µM is 7.33%. On the same count and under the same terms, with `Cn1cc(CNCC2CCN(c3ncc(C(=O)NO)cn3)CC2)c2ccccc21` [Quisinostat (JNJ-26481585) 2HCl] the figure was 0%; with `CCn1cc(C(=O)O)c(=O)c2cc(F)c(N3CCNCC3)cc21` [Norfloxacin], 24.7%. Same read-out and setting: with `CCOC(=O)[C@H]1O[C@@H]1C(=O)N[C@@H](CC(C)C)C(=O)NCCC(C)C` [Aloxistatin] the figure was 0%.
